From US6608082B1, “Treatment of erectile dysfunction using isoquinoline compound melanocortin receptor ligands” (Lion Bioscience AG, priority 1998, dated 2003) come the findings set out here.

Read-outs that look alike come from different tables or passages of the source.

The target in test [1] is T1, MCR-4 (Homo sapiens, UniProt P32245).
T1 construct: expressed in transfected cells; host or cells: HEK 293
In words: Melanocortin receptor binding assay, competition with 125I-HP 467, HEK 293 cells expressing hMCR-4. The settings on record: for IC50: read-out: MC-4 IC50. In a few lines:
(§1)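 Intact-cell competition binding, 2.5 hr at 37 °C, in PBS/10% calf serum/1 mM CaCl2; hMCR-4 cells at 4×10^3 per tube, hMCR-1 cells at 2×10^4 per tube. Filtration on BSA/CaCl2-soaked GF/B, cold 50 mM Tris pH 7.4 washes, scintillation count.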

For test [2], the target named is T2, MCR-1 (Homo sapiens, UniProt Q01726).
T2 construct: expressed in transfected cells; host or cells: HEK 293
In words: Melanocortin receptor binding assay, competition with 125I-HP 467, HEK 293 cells expressing hMCR-1. The conditions noted are these: for IC50: read-out: MC-1 IC50. The procedure, abridged:
as §1

Setting [3] is: TRG 2408 and TRG 2409 libraries, inhibition of 125I-HP 467 binding.
Where [4] appears, read: TRG 2406 and TRG 2407 libraries, inhibition of binding of 125I-HP 467.
Setting [5] is: inhibition of binding of 125I-HP 467, HEK 293 cells expressing MCR-4.
Setting [6] is: inhibition of binding of 125I-HP 467, HEK 293 cells expressing MCR-1.
Setting [7] is: inhibition of binding of 125I-HP 467, HEK 293 cells expressing MCR-4, TRG 2414 library.
[8] abbreviates: inhibition of binding of 125I-HP 467, HEK 293 cells expressing MCR-1, TRG 2414 library.
Setting [9] is: competition with 125I-HP 467, HEK 293 cells expressing MCR-4.
[10] abbreviates: competition with 125I-HP 467, HEK 293 cells expressing MCR-1.
The mark [11] stands for this setting: TRG 2414 library, inhibition of binding of 125I-HP 467, HEK 293 cells expressing MCR-4.
The mark [12] stands for this setting: TRG 2414 library, inhibition of binding of 125I-HP 467, HEK 293 cells expressing MCR-1.

Usually IC50 stands for the concentration needed to halve the response being measured.

T1 sequence (P32245 whole entry): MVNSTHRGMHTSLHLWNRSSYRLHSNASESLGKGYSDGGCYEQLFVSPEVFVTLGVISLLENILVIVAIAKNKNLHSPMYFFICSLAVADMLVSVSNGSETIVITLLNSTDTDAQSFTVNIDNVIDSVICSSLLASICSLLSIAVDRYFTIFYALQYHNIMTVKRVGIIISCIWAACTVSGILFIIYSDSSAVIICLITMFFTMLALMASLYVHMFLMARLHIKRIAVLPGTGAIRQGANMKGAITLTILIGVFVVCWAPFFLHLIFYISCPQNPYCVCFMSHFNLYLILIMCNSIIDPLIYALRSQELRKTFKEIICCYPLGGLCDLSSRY
T2 sequence (Q01726 whole entry): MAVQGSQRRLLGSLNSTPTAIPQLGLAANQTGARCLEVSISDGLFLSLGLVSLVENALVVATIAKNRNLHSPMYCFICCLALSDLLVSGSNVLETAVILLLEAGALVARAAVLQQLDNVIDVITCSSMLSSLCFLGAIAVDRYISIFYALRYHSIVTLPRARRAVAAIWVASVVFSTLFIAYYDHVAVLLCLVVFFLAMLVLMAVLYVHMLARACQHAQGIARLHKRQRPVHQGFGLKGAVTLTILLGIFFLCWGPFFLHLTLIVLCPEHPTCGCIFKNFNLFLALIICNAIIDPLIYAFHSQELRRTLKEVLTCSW

As to `NC[C@H](N)CCCCN1Cc2ccccc2C(CNC2CCCCC2)C1c1ccc(-c2ccccc2)cc1` (stereo partly shown) [TRG 2408-51], the IC50 in test [1] (setting [3]) was determined as 29.3 µM; in test [2] (setting [3]) it was 3190 nM.
For the compound `CNC(CN)CCCN1Cc2ccccc2C(CNC2CCCCC2)C1c1ccc(-c2ccccc2)cc1` (stereo not shown) [TRG 2408-80], the IC50 came to 12.2 µM in test [1] (setting [3]) and 2180 nM in test [2] (setting [3]).
Take `CNC(CN)CN1Cc2ccccc2C(CNCc2ccccc2O)C1c1cccc(Oc2ccc(Cl)c(Cl)c2)c1` (stereo not shown) [TRG 2406-3]: the 50% inhibitory concentration (IC50) in test [1] (setting [4]) came out at 9.69 µM; in test [2] (setting [4]), 12300 nM.
Take `CCNc1ccc(C2C(CNCCc3ccccc3)c3ccccc3CN2CCCC(CN)NCCc2ccccc2)cc1` (stereo not shown) [TRG 2413-9]: the figures for the IC50 in test [1] (setting [5]) and in test [2] (setting [6]) were 1.34 µM and 260 nM, respectively.
In the same order, the values of `CNC(CN)CCCN1Cc2ccccc2C(CNCCc2ccccc2)C1c1ccc([N+](=O)[O-])cc1` (stereo not shown) [TRG 2413-16] are 0.4 µM and 1270 nM.
`CCCOc1ccc(C2C(CNCc3ccccc3OCC)c3ccccc3CN2CCCCC(CN)NCc2ccccc2)cc1` (stereo not shown) [TRG 2414-167]: the IC50 in test [1] (setting [7]) was found to be 7.03 µM; in test [2] (setting [8]), 2160 nM.
As for `CCCCOc1ccc(C2C(CN)c3ccccc3CN2CCCC(CN)NCCC2CCCCC2)cc1` (stereo not shown) [TRG 2415-12], the IC50 in test [1] (setting [5]) is 3.89 µM; in test [2] (setting [6]), 677 nM.
Consider `CCCOc1ccc(C2C(CNCc3ccc(OC)cc3)c3ccccc3CN2CCCCC(CN)NCc2ccccc2)cc1` (stereo not shown) [TRG 2414-183], for which the figures for the IC50 in test [1] (setting [7]) and in test [2] (setting [8]) were 4.95 µM and 1090 nM, respectively.
Take `CNC(CN)CN1Cc2ccccc2C(CNCc2ccccc2O)C1c1ccc(Oc2ccccc2)cc1` (stereo not shown) [TRG 2406-12]: the IC50 in test [1] (setting [4]) is 2.62 µM; in test [2] (setting [4]) it was 5440 nM.
As for `CCCCNc1ccc(C2C(CNCCc3ccccc3)c3ccccc3CN2CCCCC(CN)NCCC2CCCCC2)cc1` (stereo not shown) [TRG 2411-84], the values for the IC50 in test [1] (setting [9]) and in test [2] (setting [10]) were 0.76 µM and 220 nM, respectively.
As to `COc1ccc(CNCC2c3ccccc3CN(CCCCC(N)CN)C2c2ccc(Oc3ccccc3)cc2)cc1` (stereo not shown) [Cmpd 271], in test [1] (setting [11]), the “MC-4 IC50” value was “no fit”. The “MC-1 IC50” value in test [2] (setting [12]) was “no fit”.
As to `NCC(CCCCN1Cc2ccccc2C(CNCc2ccccc2C(F)(F)F)C1c1cccc(Oc2ccccc2)c1)NCCc1ccccc1` (mixture of isomers) [TRG 2414-82], the IC50 in test [1] (setting [7]) was 42.9 µM. For the same compound, the “MC-1 IC50” value in test [2] (setting [8]) is recorded as “no fit”.
On to `CCCOc1ccc(C2C(CNCc3ccccc3OCC)c3ccccc3CN2CCCCC(CN)NCC(C)c2ccc(CC(C)C)cc2)cc1` (stereo not shown) [TRG 2414-168], for which the figures for the IC50 in test [1] (setting [7]) and in test [2] (setting [8]) were 44.4 µM and 21800 nM, respectively.
In the case of `CNC(CN)CCCCN1Cc2ccccc2C(CNc2ccccc2Cl)C1c1ccc(Cl)cc1Cl` (stereo not shown) [TRG 2407-3], the IC50 in test [1] (setting [4]) amounted to 9.45 µM; in test [2] (setting [4]), 8460 nM.
As to `NCC(CCCN1Cc2ccccc2C(CNC2CCCCC2)C1c1ccc(-c2ccccc2)cc1)NCCc1ccccc1` (stereo not shown) [TRG 2408-82], the IC50 in test [1] (setting [3]) came to 16.4 µM; in test [2] (setting [3]), 10200 nM.
For `COc1ccc(CNCC2c3ccccc3CN(CCCCC(CN)NCCc3ccccc3)C2c2ccc(Cl)cc2Cl)cc1` (stereo not shown) [TRG 2414-22], the values for the IC50 in test [1] (setting [7]) and in test [2] (setting [8]) were 5.02 µM and 3560 nM, respectively.
For `CCNc1ccc(C2C(CN)c3ccccc3CN2CCCC(CN)NCCCCNCCc2ccccc2)cc1` (stereo not shown) [TRG 2419-12], the results for the IC50 in test [1] (setting [5]) and in test [2] (setting [6]) were 16.7 µM and 73 nM, respectively.
With `COc1ccccc1CCNCC1c2ccccc2CN(CCCCC(CN)NCC(C)c2ccc(CC(C)C)cc2)C1c1cccc(Oc2ccccc2)c1` (mixture of isomers) [TRG 2414-92], the “MC-4 IC50” value in test [1] (setting [7]) is reported as “no fit”. In addition, the IC50 in test [2] (setting [8]) is 42600 nM.
In the case of `CCCCNC(CN)CCCCN1Cc2ccccc2C(CNCCc2ccccc2)C1c1ccc(-c2ccccc2)cc1` (stereo not shown) [TRG 2411-11], the results for the IC50 in test [1] (setting [9]) and in test [2] (setting [10]) were 1.8 µM and 830 nM, respectively.
For `CCOc1ccc(CCNCC2c3ccccc3CN(CCCCC(CN)NCc3ccc(OC)cc3)C2c2cc(C(F)(F)F)cc(C(F)(F)F)c2)cc1` (stereo not shown) [TRG 2421-24], the IC50 in test [1] (setting [5]) stood at 2.26 µM; in test [2] (setting [6]) it was 2350 nM.
Consider `COc1ccccc1CCNCC1c2ccccc2CN(CCCCC(CN)NCCc2ccccc2)C1c1ccc(Cl)cc1Cl` (stereo not shown) [TRG 2414-10], for which the results for the IC50 in test [1] (setting [7]) and in test [2] (setting [8]) were 4.88 µM and 2930 nM, respectively.
For the compound `CNC(CN)CCCCN1Cc2ccccc2C(CNCCCc2ccccc2)C1c1ccc(Cl)cc1Cl` (stereo not shown) [TRG 2407-26], the values for the IC50 in test [1] (setting [4]) and in test [2] (setting [4]) were 0.83 µM and 700 nM, respectively.
As to `CCCCNc1ccc(C2C(CN)c3ccccc3CN2CCCCC(CN)NCCc2ccc(Br)cc2)cc1` (stereo not shown) [TRG 2411-105], the figures for the IC50 in test [1] (setting [9]) and in test [2] (setting [10]) were 0.91 µM and 210 nM, respectively.
As to `COc1ccc(CNC(CN)CCCCN2Cc3ccccc3C(CNCCc3ccccc3)C2c2cc(C(F)(F)F)cc(C(F)(F)F)c2)cc1` (stereo not shown) [TRG 2421-4], the values for the IC50 in test [1] (setting [5]) and in test [2] (setting [6]) were 2.81 µM and 2570 nM, respectively.
As to `CCCCNc1ccc(C2C(CNC3CCCCC3)c3ccccc3CN2CCCC(CN)NCCc2ccc(Br)cc2)cc1` (stereo not shown) [TRG 2411-208], the IC50 in test [1] (setting [5]) is 0.86 µM; in test [2] (setting [6]), 470 nM.
Take `COc1cccc(CNCC2c3ccccc3CN(CCCCC(CN)NCCc3ccccc3)C2c2ccc(Cl)cc2Cl)c1` (stereo not shown) [TRG 2414-18]: the IC50 in test [1] (setting [7]) was determined as 8.22 µM; in test [2] (setting [8]), 4970 nM.
Regarding `NCC(CCCCN1Cc2ccccc2C(CN)C1c1ccc(-c2ccccc2)cc1)NCCO` (stereo not shown) [TRG 2411-29], the values for the IC50 in test [1] (setting [9]) and in test [2] (setting [10]) were 1.42 µM and 300 nM, respectively.
With `COc1ccc(CCNCC2c3ccccc3CN(CCCCC(N)CN)C2c2ccccc2Br)cc1` (stereo not shown) [Cmpd 225], the IC50 is 2.04 µM in test [1] (setting [11]) and 4520 nM in test [2] (setting [12]).
As to `CCCCNc1ccc(C2C(CNC3CCCCC3)c3ccccc3CN2CCCCC(CN)NCCc2ccccc2)cc1` (stereo not shown) [TRG 2411-90], the IC50 is 1.17 µM in test [1] (setting [9]) and 250 nM in test [2] (setting [10]).
As to `CCNc1ccc(C2C(CNCCc3ccccc3)c3ccccc3CN2CCCC(CN)NCCC2CCCCC2)cc1` (stereo not shown) [TRG 2411-162], the values for the IC50 in test [1] (setting [5]) and in test [2] (setting [6]) were 1.22 µM and 110 nM, respectively.
Regarding `CCNc1ccc(C2C(CNCCc3ccccc3)c3ccccc3CN2CCCC[C@@H](CN)NCCc2ccc(OC)cc2)cc1` (stereo partly shown) [TRG 2411-42], the IC50 in test [1] (setting [9]) amounted to 1.56 µM; in test [2] (setting [10]) it was 320 nM.
In the case of `CCCOc1ccc(C2C(CNCc3ccccc3OCC)c3ccccc3CN2CCCCC(CN)NCCc2ccccc2)cc1` (stereo not shown) [TRG 2414-166], the IC50 came out at 8.58 µM in test [1] (setting [7]) and 6820 nM in test [2] (setting [8]).
Take `NCC(CCCCN1Cc2ccccc2C(CNC2CCCCC2)C1c1ccc(-c2ccccc2)cc1)NCCc1ccccc1` (stereo not shown) [TRG 2408-22]: the IC50 in test [1] (setting [3]) came out at 11.4 µM; in test [2] (setting [3]), 2770 nM.
For `CC(C)Cc1ccc(C(C)CNC(CN)CCCCN2Cc3ccccc3C(CNC3CCCCCC3)C2c2ccc(Oc3ccccc3)cc2)cc1` (stereo not shown) [TRG 2414-156], the “MC-4 IC50” value in test [1] (setting [7]) is listed as “no fit”. Besides, the IC50 in test [2] (setting [8]) was 18600 nM.
`COc1ccc(Oc2cccc(C3C(CNCc4ccccc4O)c4ccccc4CN3CCN)c2)cc1` (stereo not shown) [TRG 2406-5]: the IC50 is 3.41 µM in test [1] (setting [4]) and 6160 nM in test [2] (setting [4]).
Consider `CCCCNc1ccc(C2C(CN)c3ccccc3CN2CCCCC(CN)NCCCC)cc1` (stereo not shown) [TRG 2411-102], for which the IC50 in test [1] (setting [9]) worked out at 1.17 µM; in test [2] (setting [10]), 90 nM.
With `CCNc1ccc(C2C(CN)c3ccccc3CN2CCCC(CN)NCCCCNC(C)(C)C)cc1` (stereo not shown) [TRG 2419-10], the IC50 in test [1] (setting [5]) was 4.32 µM; in test [2] (setting [6]) it was 93 nM.
Take `CCCNc1ccc(C2C(CNC3CCCCC3)c3ccccc3CN2CCCCC(CN)NC)cc1` (stereo not shown) [TRG 2409-20]: the IC50 in test [1] (setting [9]) turned out to be 19.8 µM; in test [2] (setting [10]), 880 nM.
